Test results reported in patent US20030113330A1, “Methods for treating pulmonary fibrosis” (priority 1999, published 2003).
Where a SMILES comes first, the peptide text is derived from it. The star is where a group is joined. Cbz = O=C(OCc1ccccc1)*; CH2F = FC*

Tests used:
[1] = tested on: adult male Wistar rats; settings: for lung lesions, histology / total lung collagens by hydroxyproline assay: 14 days post-bleomycin
Method: Adult male Wistar rats were given intratracheal instillations of 8 U/kg bleomycin sulfate (BLEO) or sterile saline. […] Lung fibrosis was assessed by picrosirius red (PR) quantitation of lung collagen and by hydroxyproline (HP) assay at 14 days after BLEO administration. At the same time point, fragmented DNA in lung epithelial cells was detected by in situ end labeling (ISEL).
Animals and Induction of Pulmonary Fibrosis. Forty adult male Wistar rats, 175-200 grams, were divided into four groups; three groups received a single intratracheal instillation of 8 units per kilogram of bleomycin sulfate (BLEO) in sterile saline. Two days before the administration of BLEO, one group received captopril in the drinking water at a concentration of 500 mg/liter. […] Control animals (NORM) received administrations of the vehicles only.
Immediately before sacrifice, animals were given intraperitoneal injections of sodium pentobarbital and the trachea was cannulated. The middle right lobe was ligated at the hilus, was excised distal to the ligation and was immediately frozen in liquid N2 for hydroxyproline assay of total collagen (see below). The remaining lung tissues were carefully removed and were instilled with 4% paraformaldehyde in PBS at 20 cm H2O constant pressure, then immersed in the same fixative for two hours. The fixed tissues were washed with PBS three times for 15 minutes and were then embedded in paraffin. Five-micron sections of lung were deparaffinized by passing through xylene, xylene:alcohol 1:1, 100% alcohol and 70% alcohol for 10 minutes each. Ethanol was removing by rinsing with distilled water.
In situ end-labeling (ISEL) of fragmented DNA. ISEL was conducted by a modification of the method of Mundle et al., Cell Death and Differentiation, 1: 117-122 (1994). Briefly, ethanol was removed from deparaffinized lung sections by rinsing in distilled water for at least 10 minutes. The slides were then placed in 3% hydrogen peroxide (Sigma Chemical, St. Louis, Mo.) for 30 minutes at 20° C., rinsed with PBS, and incubated with Proteinase K (Sigma Chemical, St. Louis, Mo.) in saline sodium citrate solution (SSC) (0.3 M NaCi and 30 mM sodium citrate in water, pH 7.0) for 15 minutes at 37° C. Samples were rinsed once in water, three times in 0.15 M PBS for 4 minutes each, and then incubated in SSC at 80° C. for 20 minutes. After four rinses in PBS and four rinses in Buffer A (50 mM Tris/HCl, 5 mM MgCl, 10 mM β-mercaptoethanol and 0.005% BSA in water, pH 7.5), the sections were incubated at 18° C. for two hours with ISEL solution (0.001 mM digoxigenin-dUTP, 20 U/ml DNA Polymerase 1 and 0.01 mM each of dATP, dCTP and dGTP in Buffer A). The sections were then rinsed thoroughly five times with Buffer A and three times with PBS. Detection of incorporated dUTP was achieved by incubation for two hours at 37° C. with AP-conjugated anti-digoxigenin (Boerhinger Mannheim, Indianapolis, Ind.) at a 1:400 dilution. Bound AP-antibody complexes were detected with the Fast Blue chromogen system and the sections were mounted with Fluoromount Solution (Southern Biotechnology, Birmingham, Ala.).
Identification of Collagen. Collagens were localized through staining of lung sections by the picrosirius red technique, see Pick et al., Am. J. Pathol. 134:365-371 (1989), which has absolute specificity for collagen. Briefly, sections deparaffinized with xylenes were rehydrated through a descending series of ethanols to distilled water. The hydrated sections were immersed in 0.2% aqueous phosphomolybdic acid for 2 minutes, rinsed in distilled water and then stained for 110 minutes with 0.1% Sirius Red F3BA (Pfal and Bauer, Stamford, Conn.) in saturated aqueous picric acid, pH 2.0. The sections were washed for 2 minutes in 0.01 N HCl, rinsed for 45 seconds in 70% ethanol, dehydrated in three changes of absolute alcohol, cleared in xylene and mounted in a nonaqueous mounting medium.

[2] = tested on: primary alveolar epithelial cells (AEC); assay: Bleomycin-induced apoptosis of primary AEC in vitro
Method: Lung Cell Isolation and Detection of Apoptosis In Vitro. Primary alveolar epithelial cells (AEC) were isolated from adult male Wistar rats as described above. The primary cells were studied at day two of culture, a time at which they are type II cell-like by accepted morphologic and biochemical criteria, see Paine et al., Am. J. Physiol. […] All cells were seeded in 24-well or 6-well chambers, and all experiments were conducted at subconfluent densities of 80-90% in serum-free Ham's F12 medium. Test reagents were diluted with Ham's F12 medium and were applied for 20 hours at 37° C. in a 5% CO2 incubator.
Detection of apoptotic cells with propidium iodide (PI) was conducted as described above, following digestion of ethanol-fixed cells with DNAse-free RNAse in PBS containing 5 ug/ml PI.
Apoptosis was detected as described above.

[3] = tested on: primary rat AEC; assay: Amiodarone-induced net cell loss in primary rat AEC cultures; format: cell-based; settings: primary rat AEC
Method: (§1) Primary alveolar epithelial cells were isolated from adult male Wistar rats. The primary cells were studied at day two of culture, a time at which they are type II cell-like by accepted morphologic and biochemical criteria. All primary cell preparations were of better than 90% purity assessed by acridine orange staining. All cells were seeded in 24-well or 6-well chambers, and all experiments were conducted at subconfluent densities of 80-90% in serum-free Ham's F12 medium. Test reagents were diluted with Ham's F12 medium and were applied for 20 hours at 37C. in a 5% CO2 incubator.
(§2) In all assays, detached cells were retained by centrifugation of the culture vessel at 300×g for 10 minutes with a centrifuge rotor designed for culture plates. For detection of necrosis (dye exclusion of PI), the PI was added directly to the cell culture medium immediately before centrifugation of the culture vessel. For detection of apoptosis, ethanol was added directly to the cell culture medium to a final concentration of 70% immediately before the centrifugation. Afterward, the ethanol was carefully removed and the total cell population (attached plus sedimented detached cells) were stained with PI as described above.
(§3) Importantly, unattached cells were recovered and included in the analyses, and thus the data represent true loss of cells rather than simple detachment from the substratum.

[4] = tested on: A549 cells; assay: Amiodarone-induced net cell loss in A549 cultures; format: cell-based, human; settings: A549
Method: as §1, §2, §3

[5] = tested on: A549 cells; assay: FAS-induced apoptosis (activating anti-FAS antibody CH-11) in A549 cells, ISEL / nuclear fragmentation; format: cell-based, human; settings: CH-11 200 ng/ml; lisinopril 500 ng/ml, saralasin 5 mg/ml
[6] = tested on: primary rat AEC; assay: Angiotensinogen-induced apoptosis in primary rat AEC; format: cell-based; settings: ANG 5.0 uM; saralasin 50 ug/ml, lisinopril 500 ng/ml
Method: Cell Culture. […] J. Physiol. Suppl. […] J. Physiol. […] J. Physiol. […] J. Physiol. Suppl.
Detection of Apoptosis. […] J. Physiol. […] Assay of Annexin V binding by flow cytometry was performed essentially as described for human lung fibroblasts in Uhal, et al., Am. J. Physiol. […] Assay of Caspase-3 activity was performed on viable suspension cultures as reported in Uhal, et al., Am. J. Physiol.
For microscopy, cells were cultured on glass cover slips, incubated with test reagents and fixed with 70% ethanol. The fixed cells were immunolabeled overnight at 4° C. with monoclonal antibodies to cytokeratins 7 and 19 (Chemicon International, Temecula, Calif.), and then for one hour at 37° C. with anti-mouse IgG-rhodamine and DNAse-free RNAse (Boehringer Mannheim, Indianapolis, Ind.) The cover slips were then rinsed in distilled water three times and mounted under Fluoromount Solution (Southern Biotechnology Associates, Birmingham, Ala.) containing 5 ug/ml propidium iodide. Photomicroscopy was performed as described in Uhal, et al., Am. J. Physiol.

| Structure (SMILES) | lung lesions, histology [1] | total lung collagens by hydroxyproline assay [1] | inhibition of accumulation of lung collagens ([1]; captopril 500 mg/liter drinking water, ZVAD-fmk 1 mg per kg daily i.p., 14 days after BLEO) | inhibition of bleomycin-induced apoptosis of AEC in vitro ([2]; bleomycin 50 uM, captopril 500 ng/ml, ZVAD-fmk 60 uM, aurintricarboxylic acid 10 uM) | effect on amiodarone-induced decrease in total cell number [3] | net cell loss abrogated [3] | effect on amiodarone-induced decrease in total cell number [4] | inhibition of ISEL labeling in AEC ([1]; 14 days after BLEO) | inhibition of ISEL labeling in airway epithelial cells ([1]; 14 days after BLEO) | inhibition at 0.5 µg/mL ([2]; Rattus norvegicus, Epithelial cell, read-out: inhibition of bleomycin-induced apoptosis of AEC in vitro) | inhibition of FAS-induced apoptosis [5] | inhibition of angiotensinogen-induced apoptosis [6] |
| --- | --- | --- | --- | --- | --- | --- | --- | --- | --- | --- | --- | --- |
| COC(=O)C[C@H](NC(=O)[C@H](C)NC(=O)[C@@H](NC(=O)OCc1ccccc1)C(C)C)C(=O)CF [ZVAD-fmk, N-benzylcarboxy-Val-Ala-Asp-[O-Me]-CH2F] (Cbz-Val-Ala-Asp(OMe)-CH2F) | much less extensive | inhibited lung collagen accumulation | 85% | 78% | significantly inhibited | 75% | significantly inhibited | – | – | – | – | – |
| C[C@H](CS)C(=O)N1CCC[C@H]1C(=O)O [captopril] | much less extensive | inhibited lung collagen accumulation | – | – | significantly inhibited | – | significantly inhibited | 99% | 67% | 76% | – | – |
| NCCCC[C@H](N[C@@H](CCc1ccccc1)C(=O)O)C(=O)N1CCC[C@H]1C(=O)O [lisinopril] | – | – | – | – | – | – | – | – | – | – | 61% | blocked |
| CNCC(=O)N[C@@H](CCCN=C(N)N)C(=O)N[C@H](C(=O)N[C@@H](Cc1ccc(O)cc1)C(=O)N[C@H](C(=O)N[C@@H](Cc1cnc[nH]1)C(=O)N1CCC[C@H]1C(=O)N[C@@H](C)C(=O)O)C(C)C)C(C)C [saralasin] | – | – | – | – | significantly inhibited | – | significantly inhibited | – | – | – | 71% | completely inhibited |
